Results on three compounds are retold here after patent US9522911B2, “Crystalline forms of tricyclic compound acid salt or hydrate thereof, and method for making thereof” (Jeil Pharmaceutical Co., Ltd., priority 2012, dated 2016).

A short description of data set [1]: Stability: moisture content with respect to time in thermo-hygrostat (Karl Fisher). It is filed as physicochemical. Particulars: 25° C. and 60% RH, opened Petri dish. As to the method:
To compare the stability of 10-ethoxy-8-(morpholinomethyl)-1,2,3,4-tetrahydrobenzo[h][1,6]naphthyridine-5(6H)-on dichloride dihydrate prepared in Example 1 and 10-ethoxy-8-(morpholinomethyl)-1,2,3,4-tetrahydrobenzo[h][1,6]naphthyridine-5(6H)-on dichloride anhydride prepared in Comparative Example 1, the following experiment was performed.
3.0 g of each of the compounds was put in a Petri dish, and the Petri dish was left in a thermo-hygrostat maintaining 25° C. and 60% RH with an opened state. The moisture content with respect to time was measured using a Karl Fisher apparatus and recorded. By measuring the change of the moisture content with respect to time under the above-described conditions, the stability of the dihydrate and that of the anhydride were compared. The results are illustrated in the following Table 1 and FIG. 1.

Data set [2] is described as follows: Stability of crystalline vs amorphous compound by change of XRD diffraction pattern (with moisture content). Particulars: for Change of XRD diffraction pattern with respect to time (in words): X-ray diffraction analysis. It is filed as physicochemical. How it is done:
For comparing the stability of the crystalline compound of Example 1 according to the present invention and the amorphous compound of Comparative Example 2, the following experiment was performed.
The stability of each of the crystalline compound of Example 1 according to the present invention and the amorphous compound of Comparative Example 2 was measured by measuring the change of a diffraction pattern through X-ray diffraction analysis (XRD).
For the amorphous compound of Comparative Example 2, accurate and specific XRD pattern of the amorphous type was not shown, however amorphous 10-ethoxy-8-(morpholinomethyl)-1,2,3,4-tetrahydrobenzo[h][1,6]naphthyridine-5(6H)-on dichloride obtained after freeze drying absorbs surrounding moisture during performing the XRD, thereby increasing the crystallinity and showing XRD peaks.
Meanwhile, the moisture content of the compound of Comparative Example 2 was 0.4% immediately after drying, and was increased to 5.2% after measuring XRD.

As to `CCOc1cc(CN2CCOCC2)cc2[nH]c(=O)c3c(c12)NCCC3` [Comparative Example 1, 10-ethoxy-8-(morpholinomethyl)-1,2,3,4-tetrahydrobenzo[h][1,6]naphthyridine-5(6H)-on dichloride anhydride], the “Change of the moisture content with respect to time (in words)” value in data set [1] is “increased within 30 minutes from the initial state”. Further, the Moisture content in data set [1] (30 min) is 9.70%; in data set [1] (1 h), 10.18%; in data set [1] (2 h) it was 9.79%; in data set [1] (1 day), 9.72%; in data set [1] (2 days), 9.86%; in data set [1] (initial state) it was 0.40%.
Regarding `CCOc1cc(CN2CCOCC2)cc2[nH]c(=O)c3c(c12)NCCC3.Cl.Cl` [Comparative Example 2, 10-ethoxy-8-(morpholinomethyl)-1,2,3,4-tetrahydrobenzo[h][1,6]naphthyridine-5(6H)-on dichloride], the “Change of XRD diffraction pattern with respect to time (in words)” value in data set [2] is “crystallinity thereof is increased”. Moreover, the figures for the Moisture content in data set [2] (after measuring XRD) and in data set [2] (immediately after drying) were 5.2% and 0.4%, respectively.
For `CCOc1cc(CN2CCOCC2)cc2[nH]c(=O)c3c(c12)NCCC3` [Example 1, 10-ethoxy-8-(morpholinomethyl)-1,2,3,4-tetrahydrobenzo[h][1,6]naphthyridine-5(6H)-on dichloride dihydrate], the “Change of the moisture content with respect to time (in words)” value in data set [1] (dihydrate) is listed as “constant”. The Moisture content in data set [1] (30 min, dihydrate) was found to be 8.75%; in data set [1] (1 h, dihydrate), 8.80%; in data set [1] (2 h, dihydrate) it was 8.79%; in data set [1] (1 day, dihydrate) it was 8.77%; in data set [1] (2 days, dihydrate), 8.81%; in data set [1] (initial state, dihydrate), 8.77%. Moreover, the “Change of XRD diffraction pattern with respect to time (in words)” value in data set [2] is on record as “constant data without change of the XRD diffraction pattern”.
